Target: T1, hDHHC20 (Homo sapiens, UniProt Q5W0Z9)
T1 sequence (Q5W0Z9 1-365): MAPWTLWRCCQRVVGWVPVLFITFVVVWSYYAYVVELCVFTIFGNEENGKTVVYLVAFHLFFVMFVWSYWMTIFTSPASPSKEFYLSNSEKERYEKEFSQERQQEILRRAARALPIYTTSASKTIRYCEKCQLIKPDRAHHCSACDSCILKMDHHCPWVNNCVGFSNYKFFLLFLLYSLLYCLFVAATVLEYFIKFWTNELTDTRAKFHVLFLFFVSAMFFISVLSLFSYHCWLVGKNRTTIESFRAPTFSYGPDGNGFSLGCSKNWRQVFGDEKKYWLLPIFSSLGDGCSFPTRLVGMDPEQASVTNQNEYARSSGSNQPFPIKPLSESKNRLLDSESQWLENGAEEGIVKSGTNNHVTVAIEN
Test: coupled-enzyme PAT activity inhibition assay
Format: biochemical

CCCCCCCCCCCCCCC(Br)C(=O)O (stereo not shown) [2-bromopalmitic acid]
IC50: 4.5 µM

Reference: article PMC8851515 (Proceedings of the National Academy of Sciences of the …, 2022)
